Assay [1] concerns HCT-15 cells. Briefly: 48-hour cellular proliferation assay, sulforhodamine stain (human colon adenocarcinoma, MDR positive). It counts as cell-based. The protocol:
(§1) Compounds of this invention were tested in a 48-hour cellular proliferation assay that uses human colon adenocarcinoma, MDR positive (HCT-15) cells, and human lung large cell carcinoma, MDR negative (NCI-H460) cells, in the 96-well microtitre format described in Skehan P., et al. New Colorimetric Cytotoxicity Assay for Anticancer Drug Screening. 1990, J. Natl. Cancer Inst. 82:1107-1112, hereby incorporated by reference. Briefly, the wells of a microtitre plate were charged sequentially with cultured cells and compounds of the invention (1.0×10^-4 to 1.0×10^-11 M in 10% DMSO prepared by dissolving compounds of the invention in DMSO and adding 11 μL of the DMSO solution to 100 μL of culture medium for a final DMSO concentration of 10%). Two of the following controls were also present in each microtitre plate: a solvent (DMSO) control without drug that yielded a 0% inhibition level and a trichloroacetic acid-treated well that yielded a 100% inhibition level. The cells were grown in culture (37° C., 5% CO2 atmosphere) for 48 hours then fixed by the addition of trichloroacetic acid. The wells were stained with sulforhodamine, washed with 1% acetic acid, and treated with 0.01 M tris buffer (100 μL) to solubilize the adherent dye. The absorbance of the dye solution was measured with a Molecular Devices SpectraMax340 plate reader. Percent inhibition and Inhibitory Concentrations (IC50) values were obtained by calculating the proportional response of the experimental values to the absorbance values of the controls.

The test system of assay [2] is NCI-H460 cells. Description: 48-hour cellular proliferation assay, sulforhodamine stain (human lung large cell carcinoma, MDR negative). In kind it is cell-based. Conditions: NCI-H460 cells. The protocol:
as §1

Setting [3] is: Homo sapiens, values given in μM.

With `COc1ccc(C2=NCC(c3cc(OC)c(OC)c(OC)c3)O2)cc1N` (stereo not drawn) [Example 39, 2-(3-amino-4-methoxyphenyl)-5-(3,4,5-trimethoxyphenyl)-Δ2,3-oxazoline], the IC50 in assay [1] (Homo sapiens, values in nM) came to 33 nM; in assay [2] (Homo sapiens, values in nM) it was 68 nM.
For `COc1cc(C2CN=C(c3ccc(C)c(N)c3)O2)cc(OC)c1OC` (stereo not drawn) [Example 40, 2-(3-amino-4-methyphenyl)-5-(3,4,5-trimethoxyphenyl)-Δ2,3-oxazoline], the IC50 in assay [1] (Homo sapiens, values in nM) turned out to be 62 nM; in assay [2] (Homo sapiens, values in nM) it was 82 nM.
Consider `COc1ccc(C2=NCC(c3cc(OC)c(OC)c(OC)c3)O2)cc1NC(=O)C(C)NC(=O)C(C)N` (stereo not drawn) [Example 41], for which the IC50 in assay [1] (values in nM) was 520 nM; in assay [2] (values in nM), 590 nM.
Consider `COc1ccc(C2=NCC(c3cc(OC)c(OC)c(OC)c3)O2)cc1NC(=O)[C@@H](N)CO` (stereo partly drawn) [Example 44], for which the IC50 in assay [1] (setting [3]) worked out at 6600 nM; in assay [2] (setting [3]), 3800 nM.
As for `COc1cc(C2CN=C(c3ccn(C)c(=O)c3)O2)cc(OC)c1OC` (stereo not drawn) [Example 46, 2-(1-methyl-1H-pyridin-2-on-4-yl)-5-(3,4,5-trimethoxyphenyl)-Δ2,3-oxazoline], the IC50 came to 440 nM in assay [1] (Homo sapiens, values in nM) and 470 nM in assay [2] (Homo sapiens, values in nM).
For the compound `COc1cc(C2CN=C(c3ccc4c(ccn4C(=S)SC)c3)O2)cc(OC)c1OC` (stereo not drawn) [Example 56, 2-(1-methlthiothiocarbonylindol-5-yl)-5-(3,4,5-trimethoxyphenyl)-Δ2,3-oxazoline], the results for the IC50 in assay [1] (setting [3]) and in assay [2] (setting [3]) were 12000 nM and 6000 nM, respectively.
On to `COc1cc(C2CN=C(c3cc4ccn(C)c4cc3Cl)O2)cc(OC)c1OC` (stereo not drawn) [Example 60, 2-(6-Chloro-1-methylindol-5-yl)-5-(3,4,5-trimethoxyphenyl)-Δ2,3-oxazoline], for which the IC50 was determined as 280 nM in assay [1] (Homo sapiens, values in nM) and 410 nM in assay [2] (Homo sapiens, values in nM).
On to `COc1cc(C2CN=C(c3ccc4c(ccn4C(F)F)c3)O2)cc(OC)c1OC` (stereo not drawn) [Example 61, 2-(1-difluoromethylindol-5-yl)-5-(3,4,5-trimethoxyphenyl)-Δ2,3-oxazoline], for which the concentration for half-maximal inhibition (IC50) is 1.9 nM in assay [1] (Homo sapiens, values in nM) and 1.8 nM in assay [2] (Homo sapiens, values in nM).
On the same counts, the results for `COc1cc(C2CN=C(c3ccc4c(c3)c(Cl)cn4C)O2)cc(OC)c1OC` (stereo not drawn) [Example 62, 2-(3-chloro-1-methylindol-5-yl)-5-(3,4,5-trimethoxyphenyl)-Δ2,3-oxazoline] are 23 nM and 37 nM.
The corresponding values for `COc1cc(C2CN=C(c3cc(F)c4[nH]ccc4c3)O2)cc(OC)c1OC` (stereo not drawn) [Example 63, 2-(7-fluoro-5-indolyl)-5-(3,4,5-trimethoxyphenyl)-Δ2,3-oxazoline] are 20 nM and 43 nM.
On to `COc1cc(C2CN=C(c3cc(F)c4c(ccn4C)c3)O2)cc(OC)c1OC` (stereo not drawn) [Example 64, 2-(1-methyl-7-fluoro-5-indolyl)-5-(3,4,5-trimethoxyphenyl)-Δ2,3-oxazoline], for which the IC50 in assay [1] (Homo sapiens, values in nM) came to 3.96 nM; in assay [2] (Homo sapiens, values in nM), 2.9 nM.
The corresponding values for `COc1cc(C2CN=C(c3cc(Cl)c4[nH]ccc4c3)O2)cc(OC)c1OC` (stereo not drawn) [Example 65, 2-(7-chloro-5-indolyl)-5-(3,4,5-trimethoxyphenyl)-Δ2,3-oxazoline] are 37 nM and 51 nM.
For `COc1cc(C2CN=C(c3cc(Cl)c4c(ccn4C)c3)O2)cc(OC)c1OC` (stereo not drawn) [Example 66, 2-(1-methyl-7-chloro-5-indolyl)-5-(3,4,5-trimethoxyphenyl)-Δ2,3-oxazoline], the IC50 in assay [1] (Homo sapiens, values in nM) worked out at 46 nM; in assay [2] (Homo sapiens, values in nM), 100 nM.
On the same counts, the results for `COc1cc(C2CN=C(c3ccc4[nH]cc(F)c4c3)O2)cc(OC)c1OC` (stereo not drawn) [Example 67, 2-(3-fluoro-5-indolyl)-5-(3,4,5-trimethoxyphenyl)-Δ2,3-oxazoline] are 23 nM and 38 nM.
On the same counts, the results for `COc1cc(C2CN=C(c3ccc4c(c3)c(F)cn4C)O2)cc(OC)c1OC` (stereo not drawn) [Example 68] are 47 nM and 150 nM.
On the same counts, the results for `COc1cc(C2CN=C(c3ccc4c(ccn4CO)c3)O2)cc(OC)c1OC` (stereo not drawn) [Example 69, 2-(1-hydroxymethylindol-5-yl)-5-(3,4,5-trimethoxyphenyl)-Δ2,3-oxazoline] are 450 nM and 680 nM.
Regarding `COCn1ccc2cc(C3=NCC(c4cc(OC)c(OC)c(OC)c4)O3)ccc21` (stereo not drawn) [Example 70, 2-(1-methoxymethyl-5-indolyl)-5-(3,4,5-trimethoxyphenyl)-Δ2,3-oxazoline], the IC50 in assay [1] (Homo sapiens, values in nM) was determined as 170 nM; in assay [2] (Homo sapiens, values in nM), 210 nM.
On to `COc1cc(C2CN=C(c3ccc4c(c3)cc(C)n4C)O2)cc(OC)c1OC` (stereo not drawn) [Example 71], for which the half-maximal inhibitory concentration (IC50) in assay [1] (Homo sapiens, values in nM) stood at 5 nM; in assay [2] (Homo sapiens, values in nM) it was 17 nM.
As for `COc1cc(C2CN=C(c3cc(C)c4[nH]ccc4c3)O2)cc(OC)c1OC` (stereo not drawn) [Example 72, 2-(7-methyl-5-indolyl)-5-(3,4,5-trimethoxyphenyl)-Δ2,3-oxazoline], the half-maximal inhibitory concentration (IC50) in assay [1] (Homo sapiens, values in nM) is 11 nM; in assay [2] (Homo sapiens, values in nM), 36 nM.
The corresponding values for `COc1cc(C2CN=C(c3cc(C)c4c(ccn4C)c3)O2)cc(OC)c1OC` (stereo not drawn) [Example 73, 2-(1,7-dimethyl-5-indolyl)-5-(3,4,5-trimethoxyphenyl)-Δ2,3-oxazoline] are 34 nM and 41 nM.
On to `COc1cc(C2CN=C(c3cc(C)c4c(c3)cc(C)n4C)O2)cc(OC)c1OC` (stereo not drawn) [Example 74, 2-(1,2,7-trimethylindol-5-yl)-5-(3,4,5-trimethoxyphenyl)-Δ2,3-oxazoline], for which the figures for the concentration for half-maximal inhibition (IC50) in assay [1] (setting [3]) and in assay [2] (setting [3]) were 1300 nM and 1200 nM, respectively.
The corresponding values for `COc1cc(C2CN=C(c3ccc4c(c3)nc(C)n4C)O2)cc(OC)c1OC` (stereo not drawn) [Example 75, 2-(1,2-dimethylbenzimidazol-5-yl)-5-(3,4,5-trimethoxyphenyl)-Δ2,3-oxazoline] are 1900 nM and 3800 nM.
For `COc1cc(C2CN=C(c3ccc4c(c3)c(C(=O)C(F)(F)F)cn4C)O2)cc(OC)c1OC` (stereo not drawn) [Example 77, 2-(1-methyl-3-trifluoroacetylindol-5-yl)-5-(3,4,5-trimethoxyphenyl)-Δ2,3-oxazoline], the results for the IC50 in assay [1] (setting [3]) and in assay [2] (setting [3]) were 3800 nM and 4200 nM, respectively.
On the same counts, the results for `COc1cc(C2CN=C(c3ccc4c(ccn4CC(F)(F)F)c3)O2)cc(OC)c1OC` (stereo not drawn) [Example 78, 2-(1-(2,2,2-trifluoroethyl)indol-5-yl)-5-(3,4,5-trimethoxyphenyl)-Δ2,3-oxazoline] are 1900 nM and 3500 nM.

Source of the values: patent US6228868A, “Oxazoline antiproliferative agents” (Abbott Laboratories, priority 1999, dated 2001).
